The test system of one series is transgenic hDAT 1°HRs. As to the kind of experiment: Toxicity of DA-ergic toxins, trypan blue staining, transgenic hairy roots. The conditions noted are these: for cells killed by toxin exposure: 24 h, 6-OHDA 50 uM, MPTP 100 μM, MPP+ 100 μM. The source says: (§1) Trypan blue staining for toxicity was quantified using ImageJ software. […] Since MPTP is converted to the its cytotoxic metabolite, MPP+, by oxidases, biosynthesis of oxidase inhibitors would also confer a survival advantage if MPTP were chosen as a selection agent (monoamine oxidase inhibitors prevent MPTP toxicity in SH-SY5Y neuroblastoma cells).

The test system of another series is Non-transgenic 1°HRs. As to the kind of experiment: Toxicity of DA-ergic toxins, trypan blue staining, non-transgenic hairy roots. Format: cell-based, Lobelia cardinalis. The settings on record: 6-OHDA 50 uM, MPTP 100 μM, MPP+ 100 μM.
Source text: as §1

Series [1] relates to nicAChRs. As to the kind of experiment: [3H]-dopamine release from rat brain striatal slices. Format: biochemical.
The target in series [2] is nicAChRs. The series can be described thus: nicAChR binding: inhibition of [3H]-epibatidine binding. Set-up: species or system rat. The conditions noted are these: non-subtype selective radioligand. The source says: (§2) Lobinaline was purified from a methanol extract prepared from dried aerial portions of L. cardinalis. The methanolic extract was dried under vacuum, resuspended in water, and defatted with hexane. The hexane phase was removed, and the remaining aqueous phase was partitioned with chloroform. The chloroform phase was collected, dried under vacuum, and lobinaline was purified from this fraction by acid/base extraction to yield lobinaline of ˜95% purity (single peak and spectroscopic authenticity by GC-MS). This compound was then dissolved in DMSO and used in aqueous solution to evaluate its effects on the dopamine transporter and nicAChRs, both in rat brain preparations and in the human dopaminergic neuroblastoma cell line SH-SY5Y. Antioxidant activity of lobinaline was evaluated using the dipheny picryl hydrazyl free radical scavenging assay.
(§3) It is therefore relatively non-selective, whereas almost all known plant alkaloids are relatively selective for the […] nicAChR.

Another series deals with T1, alpha7 nicAChR (Rattus norvegicus, UniProt Q05941).
T1 construct: from tissue; host or cells: rat brain preparation (inferred)
As to the kind of experiment: nicAChR binding: inhibition of [3H]-MLA binding. The conditions noted are these: alpha7 selective ligand.
Source text: as §2, §3

For series [3], the target named is T2, dopamine transporter (DAT) (Rattus norvegicus, UniProt P23977).
T2 construct: from tissue; host or cells: rat striatal synaptosomes
The series can be described thus: [3H]-dopamine uptake into rat striatal synaptosomes. Format: biochemical.

In a further series the target is T3, DAT (Rattus norvegicus, UniProt P23977).
T3 construct: from tissue; host or cells: rat striatal membranes
As to the kind of experiment: [3H]-GBR12935 specific binding to rat striatal membranes. The source says: (§4) The low affinity binding of lobinaline to this site on the DAT may therefore not be directly related to its functional effect.

A further series has as its system SH-SY5Y cells. The series can be described thus: MPP+ toxicity on SH-SY5Y cells. Format: cell-based, human.
Source text: as §2, §4

Series [4] is described as follows: DPPH free radical scavenging assay. The settings on record: read-out: IC50, inhibition of DPPH free radical activity.
Source text: as §2
Stable free radical diphenyl picryl hydrazyl (DPPH) scavenging was used to assess anti-oxidant activity.
Dried methanolic extracts prepared from individual L. cardinalis hairy roots were dissolved in assay buffer and tested for (a) concentration-dependent effects on [^3H]-DA uptake into rat striatal synaptosomes, (b) quenching stable DPPH radical, as measured by absorbance at 517 nm. The results are presented as “lobinaline equivalents” calculated from pure lobinaline concentration response curves (FIG. 1). […]

For series [5] the following is noted: mice; compared with lobeline; cited from earlier work.
The conditions of series [6]: PubChem; cited from earlier work.

T3 sequence (P23977 whole entry): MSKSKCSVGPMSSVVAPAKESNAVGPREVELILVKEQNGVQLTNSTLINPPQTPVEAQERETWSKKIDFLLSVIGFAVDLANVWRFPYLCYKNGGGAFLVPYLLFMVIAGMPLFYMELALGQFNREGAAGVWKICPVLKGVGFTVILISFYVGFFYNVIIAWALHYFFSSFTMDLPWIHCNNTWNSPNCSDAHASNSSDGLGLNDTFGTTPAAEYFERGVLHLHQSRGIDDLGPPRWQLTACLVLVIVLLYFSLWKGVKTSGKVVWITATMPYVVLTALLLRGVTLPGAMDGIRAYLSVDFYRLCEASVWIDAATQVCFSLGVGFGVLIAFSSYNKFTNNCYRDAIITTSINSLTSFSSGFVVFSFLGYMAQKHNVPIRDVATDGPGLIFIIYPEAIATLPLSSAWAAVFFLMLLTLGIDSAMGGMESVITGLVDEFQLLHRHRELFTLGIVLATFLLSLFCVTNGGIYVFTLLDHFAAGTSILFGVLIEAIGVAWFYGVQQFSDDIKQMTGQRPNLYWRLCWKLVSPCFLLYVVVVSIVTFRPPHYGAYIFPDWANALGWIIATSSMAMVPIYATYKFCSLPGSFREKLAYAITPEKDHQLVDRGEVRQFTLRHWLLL
T2 sequence (P23977 whole entry): as above
T1 sequence (Q05941 23-502): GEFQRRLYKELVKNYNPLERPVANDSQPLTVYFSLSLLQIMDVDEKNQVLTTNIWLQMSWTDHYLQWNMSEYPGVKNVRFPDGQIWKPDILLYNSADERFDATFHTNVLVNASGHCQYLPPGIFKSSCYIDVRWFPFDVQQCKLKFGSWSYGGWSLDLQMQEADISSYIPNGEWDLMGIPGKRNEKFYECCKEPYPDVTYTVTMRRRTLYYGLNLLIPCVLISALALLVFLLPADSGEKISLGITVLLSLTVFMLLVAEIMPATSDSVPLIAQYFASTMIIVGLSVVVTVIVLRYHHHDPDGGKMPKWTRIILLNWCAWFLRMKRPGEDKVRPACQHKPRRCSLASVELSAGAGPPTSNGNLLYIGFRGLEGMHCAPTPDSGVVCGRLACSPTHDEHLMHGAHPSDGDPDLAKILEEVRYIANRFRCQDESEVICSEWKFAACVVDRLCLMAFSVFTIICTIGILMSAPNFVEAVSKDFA

For `NCCc1cc(O)c(O)cc1O` [6-OHDA], in the series on transgenic hDAT 1°HRs, the “cells killed by toxin exposure” value is roughly 50%. Moreover, the “damage by toxin exposure” value in the series with Non-transgenic 1°HRs was “not significantly damaged”.

As for `Fc1ccc(C(OCCN2CCN(CCCc3ccccc3)CC2)c2ccc(F)cc2)cc1` [GBR12909], the “inhibition of toxin cytotoxicity” value in the series with transgenic hDAT 1°HRs (toxins 6-OHDA, MPTP or MPP+) is “inhibited”.

As for `CNC1(C)C2CCC(C2)C1(C)C` (stereo not shown) [mecamylamine, reference compound], in the series on nicAChRs [1] (10 μM mecamylamine), the “inhibition of the initial phase of [3H] release caused by the lobinaline-containing fraction” value was “almost completely inhibited”.

For `C[n+]1ccc(-c2ccccc2)cc1` [MPP+], the “cells killed by toxin exposure” value in the series with transgenic hDAT 1°HRs was roughly 50%. The “damage by toxin exposure” value with Non-transgenic 1°HRs is on record as “not significantly damaged”.

On to `CN1CCCC2C(c3ccccc3)C(C3=NCCCC3)C(c3ccccc3)CC21` (stereo not shown) [lobinaline], for which the Ki at nicAChRs [2] came out at 17.3 µM; at alpha7 nicAChR, 105 µM; at DAT (read-out: Ki, inhibition of [3H]-GBR12935 specific binding), 89 µM. Also, in series [3], the “maximum inhibition of dopamine uptake” value is 85.25%. In addition, the IC50 was determined as 12 µM in series [3] (read-out: IC50, inhibition of [3H]-dopamine uptake) and 21.1 µM in series [4]. Besides, on DAT, the “inhibition of [3H]-GBR12935 specific binding (extent)” value was “completely inhibited”. For the same compound, the “concentration inhibiting the toxicity of MPP+” value in the series on SH-SY5Y cells was roughly 100 µM. Moreover, the “effect on DA release induced by nicotine” value in the series on nicAChRs [1] (10 μM nicotine) is “reduced the DA release”. Moreover, the “mammalian toxicity (LD50)” value in series [5] is on record as “low mammalian toxicity”. Moreover, in series [6], the “Hydrogen Bond Acceptors” value is 2. In addition, the “Hydrogen Bond Donors” value in series [6] is given as 0. In addition, the “Log P” value in [6] was 4.8.

In the case of `CN1CC=C(c2ccccc2)CC1` [MPTP], the “cells killed by toxin exposure” value with transgenic hDAT 1°HRs is listed as roughly 50%. In the series with Non-transgenic 1°HRs, the “damage by toxin exposure” value is reported as “not significantly damaged”.

With `O=c1c(O)c(-c2ccc(O)c(O)c2)oc2cc(O)cc(O)c12` [quercetin, reference compound], the IC50 in series [4] was found to be 11.2 µM.
